Reference: patent KR20210056931A, “피리메타민을 유효성분으로 포함하는 면역 관련 질환의 치료 또는 예방용 약학 조성물” (priority 2019, dated 2021)

Key:
TNF-α [1] = assay: TNF-α expression inhibition in RAW264.7 macrophages vs PS1145 (ELISA), Experiment 1-1; type: cell-based; conditions: Fig. 1
TNF-α [2] = assay: TNF-α expression inhibition in Raw264.7, comparison with tofacitinib, Experiment 2-2; type: cell-based; conditions: for TNF-α expression: 6 h pretreatment, LPS 10 ng/mL 16 h
TNF-α [3] = assay: TNF-α expression inhibition in Raw264.7, comparison with hydroxychloroquine and proguanil, Experiment 2-3; type: cell-based
STAT3 = STAT3 activity (nuclear translocation) in Raw264.7, Experiment 3; type: cell-based; conditions: 50 ng/ml, 2 h pretreatment; LPS 100 ng/ml 16 h; Fig. 6
NF-ĸB(p65) = assay: NF-kB activity (p65 nuclear translocation) in Raw264.7, Experiment 4; type: cell-based; conditions: 50 ng/ml, 2 h pretreatment; LPS 100 ng/ml 2 h; Fig. 7
[4] = system: rheumatoid arthritis model, DBA-1J Mice [류마티스 관절염 모델]; assay: Arthritis score in rheumatoid arthritis animal model, Experiment 5; type: in vivo, mouse
[5] = system: rheumatoid arthritis model, DBA-1J Mice [류마티스 관절염 모델]; assay: Paw edema in rheumatoid arthritis animal model, Experiment 5; type: in vivo, mouse
[6] = system: rheumatoid arthritis model, DBA-1J Mice [류마티스 관절염 모델]; assay: Histopathological examination in rheumatoid arthritis animal model, Experiment 5; type: in vivo, mouse; conditions: Day 14
[7] = system: rheumatoid arthritis model, DBA-1J Mice [류마티스 관절염 모델]; assay: Arthritis score in rheumatoid arthritis animal model, dose regimen study, Experiment 6; type: in vivo, mouse

CCc1nc(N)nc(N)c1-c1ccc(Cl)cc1 [피리메타민, Pyrimethamine]
TNF-α expression (TNF-α [1]; pyrimethamine 2, 10, 50 ng/ml): TNF-α의 발현량이 현저하게 줄어들었으며 | TNF-α expression compared with PS1145 (TNF-α [1]; pyrimethamine 10 or 50 ng/ml vs PS1145 20 uM): 비교예(PS1145)에 비해 TNF-α의 발현이 보다 현저하게 줄어드는 | TNF-α expression (TNF-α [2]; PYR 50 ng/mL): 185.3 pg/mL | TNF-α expression (TNF-α [2]; PYR 100 ng/mL): 53.3 pg/mL | TNF-α expression compared with tofacitinib (TNF-α [2]; Raw264.7, LPS 10 ng/ml 16 h): 토파시티닙과 달리 TNF-α의 발현량을 직접적으로 억제 | TNF-α expression (TNF-α [3]; PY 0.2 uM, HCQ 0.61 uM, PG 5 uM, LPS 10 ng/mL, 24 h co-treatment): 667.9 | TNF-α expression inhibition (TNF-α [3]; drug treatment 2 h or 24 h, pyrimethamine 0.2 μM, proguanil 5 μM): 히드록시클로로퀸과 비교하였을 때 피리메타민의 TNF-α 발현량 억제능이 월등함 | STAT3 nuclear translocation (STAT3): LPS 16 시간 자극에 의한 STAT3의 핵이동을 억제함 | NF-ĸB(p65) activity (NF-ĸB(p65)): NF-ĸB(p65)의 활성이 현저히 저하 | Arthritis score ([4]; Day 0, G4: Py 10 mg/kg/day PO): 2.3±1.6 Total score | Arthritis score ([4]; Day 0, G5: Py 30 mg/kg/day PO): 2.3±1.4 Total score | Arthritis score ([4]; Day 2, G4: Py 10 mg/kg/day PO): 4.0±1.6 Total score | Arthritis score ([4]; Day 2, G5: Py 30 mg/kg/day PO): 2.7±1.8 Total score | Arthritis score ([4]; Day 4, G4: Py 10 mg/kg/day PO): 4.6±1.8 Total score | Arthritis score ([4]; Day 4, G5: Py 30 mg/kg/day PO): 4.0±2.7 Total score | Arthritis score ([4]; Day 7, G4: Py 10 mg/kg/day PO): 5.4±2.4 Total score | Arthritis score ([4]; Day 7, G5: Py 30 mg/kg/day PO): 4.0±2.7 Total score | Arthritis score ([4]; Day 9, G4: Py 10 mg/kg/day PO): 6.1±2.5 Total score | Arthritis score ([4]; Day 9, G5: Py 30 mg/kg/day PO): 5.3±1.6 Total score | Arthritis score ([4]; Day 11, G4: Py 10 mg/kg/day PO): 6.7±2.1 Total score | Arthritis score ([4]; Day 11, G5: Py 30 mg/kg/day PO): 5.4±1.5 Total score | Arthritis score ([4]; Day 14, G4: Py 10 mg/kg/day PO): 7.3±2.1 Total score | Arthritis score ([4]; Day 14, G5: Py 30 mg/kg/day PO): 5.6±1.4 Total score | Arthritis score (in words) ([4]; pyrimethamine groups, 10 and 30 mg/kg/day PO): 관절염 지수가 현저하게 감소 | Arthritis score compared with methotrexate (in words) ([4]; pyrimethamine high dose (30 mg/kg/day) PO): 메토트렉세이트 투여군에 비해 관절염 지수가 현저하게 낮은 | Paw edema, LEFT ([5]; Day 0, G4: Py 10 mg/kg/day PO): 0.11 ± 0.01 mL | Paw edema, RIGHT ([5]; Day 0, G4: Py 10 mg/kg/day PO): 0.10 ± 0.00 mL | Paw edema, LEFT ([5]; Day 0, G5: Py 30 mg/kg/day PO): 0.11 ± 0.02 mL | Paw edema, RIGHT ([5]; Day 0, G5: Py 30 mg/kg/day PO): 0.10 ± 0.01 mL | Paw edema, LEFT ([5]; Day 14, G4: Py 10 mg/kg/day PO): 0.15 ± 0.03 mL | Paw edema, RIGHT ([5]; Day 14, G4: Py 10 mg/kg/day PO): 0.12 ± 0.01 mL | Paw edema, LEFT ([5]; Day 14, G5: Py 30 mg/kg/day PO): 0.11 ± 0.03 mL | Paw edema, RIGHT ([5]; Day 14, G5: Py 30 mg/kg/day PO): 0.11 ± 0.02 mL | Bone destruction ([6]; G4: Py 10 mg/kg/day PO): 0.9±0.9 | Cartilage damage ([6]; G4: Py 10 mg/kg/day PO): 1.3±1.0 | Histopathological examination, total ([6]; G4: Py 10 mg/kg/day PO): 3.6±2.7 | Synovium proliferation ([6]; G4: Py 10 mg/kg/day PO): 1.4±1.1 | Bone destruction ([6]; G5: Py 30 mg/kg/day PO): 0.4±0.8 | Cartilage damage ([6]; G5: Py 30 mg/kg/day PO): 0.3±0.5 | Histopathological examination, total ([6]; G5: Py 30 mg/kg/day PO): 1.1±1.5 | Synovium proliferation ([6]; G5: Py 30 mg/kg/day PO): 0.4±0.8 | Efficacy by histopathology compared with methotrexate (in words) ([6]; Py 10 and 30 mg/kg/day PO): 메토트렉세이트와 비교할 때에도 보다 우수한 효과 | Therapeutic efficacy by histopathology (in words) ([6]; Py 10 and 30 mg/kg/day PO): 농도 의존적으로 치료 효능을 보였으며 | Arthritis score ([7]; Day 0, G7: Py 1 mg/kg/day QD IP): 2.5±1.0 total score | Arthritis score ([7]; Day 0, G8: Py 1 mg/kg/day BID PO): 2.5±1.0 total score | Arthritis score ([7]; Day 0, G9: Py 1 mg/kg/day QD PO): 2.5±1.0 total score | Arthritis score ([7]; Day 0, G10: Py 3 mg/kg/day BID PO): 2.5±1.0 total score | Arthritis score ([7]; Day 0, G11: Py 5 mg/kg QD PO): 2.5±1.2 total score | Arthritis score ([7]; Day 0, G12: Py 15 mg/kg/day QD PO): 2.5±1.0 total score | Arthritis score ([7]; Day 2, G7: Py 1 mg/kg/day QD IP): 4.7±1.6 total score | Arthritis score ([7]; Day 2, G8: Py 1 mg/kg/day BID PO): 4.8±0.8 total score | Arthritis score ([7]; Day 2, G9: Py 1 mg/kg/day QD PO): 4.7±1.4 total score | Arthritis score ([7]; Day 2, G10: Py 3 mg/kg/day BID PO): 4.5±1.0 total score | Arthritis score ([7]; Day 2, G11: Py 5 mg/kg QD PO): 4.3±2.0 total score | Arthritis score ([7]; Day 2, G12: Py 15 mg/kg/day QD PO): 4.2±1.2 total score | Arthritis score ([7]; Day 5, G7: Py 1 mg/kg/day QD IP): 7.2±1.9 total score
